Laboratory results reported in US20130303507A1 (Novartis AG, priority 2011, published 2013).

Molecular target: Cdk9/cyclinT1 (Homo sapiens, UniProt P50750)
Assay: Cdk9/cyclinT1 IMAP protocol (fluorescence polarization)
Conditions: IC-50, CDK9; lower limit of assay 0.0005 micromolar

Sequence of Cdk9/cyclinT1 (P50750 whole entry): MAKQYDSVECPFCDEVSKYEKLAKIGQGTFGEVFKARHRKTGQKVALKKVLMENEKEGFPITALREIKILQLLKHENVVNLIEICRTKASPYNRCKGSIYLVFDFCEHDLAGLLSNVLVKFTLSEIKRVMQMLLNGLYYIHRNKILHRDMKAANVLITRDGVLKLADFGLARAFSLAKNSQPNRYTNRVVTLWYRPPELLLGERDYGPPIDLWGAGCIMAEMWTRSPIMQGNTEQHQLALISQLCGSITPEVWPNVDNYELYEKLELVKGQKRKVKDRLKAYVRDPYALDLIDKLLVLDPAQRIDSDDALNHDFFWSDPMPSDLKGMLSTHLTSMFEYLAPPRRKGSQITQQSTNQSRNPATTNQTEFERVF
Sequence of Cdk9/cyclinT1 (O60563 whole entry partner): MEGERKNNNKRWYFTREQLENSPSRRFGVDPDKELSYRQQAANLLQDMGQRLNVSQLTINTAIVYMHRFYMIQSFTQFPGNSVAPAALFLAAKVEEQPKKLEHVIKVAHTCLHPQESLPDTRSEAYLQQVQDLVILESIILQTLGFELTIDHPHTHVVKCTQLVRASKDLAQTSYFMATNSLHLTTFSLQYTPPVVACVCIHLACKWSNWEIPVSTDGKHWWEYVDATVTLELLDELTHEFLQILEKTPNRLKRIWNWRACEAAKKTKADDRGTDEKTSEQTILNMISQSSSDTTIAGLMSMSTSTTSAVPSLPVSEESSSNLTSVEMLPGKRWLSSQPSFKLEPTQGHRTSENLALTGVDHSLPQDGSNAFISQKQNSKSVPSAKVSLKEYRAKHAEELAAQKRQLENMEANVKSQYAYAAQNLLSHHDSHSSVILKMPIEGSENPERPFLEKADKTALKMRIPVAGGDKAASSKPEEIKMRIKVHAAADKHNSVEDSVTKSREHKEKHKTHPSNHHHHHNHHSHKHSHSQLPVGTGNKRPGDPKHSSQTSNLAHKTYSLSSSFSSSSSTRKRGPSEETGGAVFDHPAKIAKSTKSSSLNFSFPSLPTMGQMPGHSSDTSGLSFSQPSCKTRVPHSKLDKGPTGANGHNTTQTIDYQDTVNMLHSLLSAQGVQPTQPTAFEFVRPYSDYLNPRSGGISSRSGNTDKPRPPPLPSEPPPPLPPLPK

Row | SMILES | IC50 [nM]
1 | N#CC1(CNc2cccc(-c3cc(N[C@H]4CC[C@H](NCC5CCCO5)CC4)ncc3F)n2)CCOCC1 (stereo partly drawn) [Compound 482, 4-(((5′-fluoro-2′-((trans-4-(((tetrahydrofuran-2-yl)methyl)amino)cyclohexyl)amino)-[2,4′-bipyridin]-6-yl)amino)methyl)tetrahydro-2H-pyran-4-carbonitrile] | < 0.5
2 | N#CC1(CNc2cccc(-c3cc(N[C@H]4CC[C@H](NC[C@@H]5CCCO5)CC4)ncc3F)n2)CCOCC1 [Compound 483, 4-(((5′-fluoro-2′-((trans-4-((((S)-tetrahydrofuran-2-yl)methyl)amino)cyclohexyl)amino)-[2,4′-bipyridin]-6-yl)amino)methyl)tetrahydro-2H-pyran-4-carbonitrile] | < 0.5
3 | N#CC1(CNc2cccc(-c3cc(N[C@H]4CC[C@H](NC[C@H]5CCCO5)CC4)ncc3F)n2)CCOCC1 [Compound 484, 4-(((5′-fluoro-2′-((trans-4-((((R)-tetrahydrofuran-2-yl)methyl)amino)cyclohexyl)amino)-[2,4′-bipyridin]-6-yl)amino)methyl)tetrahydro-2H-pyran-4-carbonitrile] | < 0.5
4 | NC(=O)C1(CNc2cccc(-c3cc(N[C@H]4CC[C@H](N)CC4)ncc3F)n2)CCOCC1 [Compound 485, 4-(((2′-((trans-4-aminocyclohexyl)amino)-5′-fluoro-[2,4′-bipyridin]-6-yl)amino)methyl)tetrahydro-2H-pyran-4-carboxamide] | 1.8
5 | N#CC1(CNc2cccc(-c3cc(N[C@H]4CC[C@H](N)CC4)ncc3F)n2)CC1 [Compound 486, 1-(((2′-((trans-4-aminocyclohexyl)amino)-5′-fluoro-[2,4′-bipyridin]-6-yl)amino)methyl)cyclopropane-carbonitrile] | < 0.5
6 | NC(=O)C1(CNc2cccc(-c3cc(N[C@H]4CC[C@H](N)CC4)ncc3F)n2)CC1 [Compound 487, 1-(((2′-((trans-4-aminocyclohexyl)amino)-5′-fluoro-[2,4′-bipyridin]-6-yl)amino)methyl)cyclopropane-carboxamide] | < 0.5
7 | COCCN[C@H]1CC[C@H](Nc2cc(-c3cccc(NCC4(C#N)CC4)n3)c(F)cn2)CC1 [Compound 488, 1-(((5′-fluoro-2′-((trans-4-((2-methoxyethyl)amino)cyclohexyl)amino)-[2,4′-bipyridin]-6-yl)amino)methyl)cyclopropane-carbonitrile] | < 0.5
8 | COC[C@H](C)N[C@H]1CC[C@H](Nc2cc(-c3cccc(NCC4(C#N)CCOCC4)n3)c(F)cn2)CC1 [Compound 489, 4-(((5′-fluoro-2′-((trans-4-(((S)-1-methoxypropan-2-yl)amino)cyclohexyl)amino)-[2,4′-bipyridin]-6-yl)amino)methyl)tetrahydro-2H-pyran-4-carbonitrile] | ≤ 0.5
9 | N#CC1(CNc2cccc(-c3cc(N[C@H]4CC[C@H](NC[C@H](O)C(F)(F)F)CC4)ncc3Cl)n2)CCOCC1 [Compound 490, 4-(((5′-chloro-2′-((trans-4-(((S)-3,3,3-trifluoro-2-hydroxypropyl)amino)cyclohexyl)amino)-[2,4′-bipyridin]-6-yl)amino)methyl)tetrahydro-2H-pyran-4-carbonitrile] | < 0.5
10 | N#CC1(CNc2cccc(-c3cc(N[C@H]4CC[C@H](NC[C@@H](O)C(F)(F)F)CC4)ncc3Cl)n2)CCOCC1 [Compound 491, 4-(((5′-chloro-2′-((trans-4-(((R)-3,3,3-trifluoro-2-hydroxypropyl)amino)cyclohexyl)amino)-[2,4′-bipyridin]-6-yl)amino)methyl)tetrahydro-2H-pyran-4-carbonitrile] | < 0.5
11 | N#CC1(CNc2cccc(-c3cc(N[C@H]4CC[C@H](CN)CC4)ncc3Cl)n2)CCOCC1 [Compound 493, 4-(((2′-((trans-4-(aminomethyl)cyclohexyl)amino)-5′-chloro-[2,4′-bipyridin]-6-yl)amino)methyl)tetrahydro-2H-pyran-4-carbonitrile] | < 0.5
12 | CS(=O)(=O)NC[C@H]1CC[C@H](Nc2cc(-c3cccc(NCC4(C#N)CCOCC4)n3)c(Cl)cn2)CC1 [Compound 494, N-((trans-4-((5′-chloro-6-(((4-cyanotetrahydro-2H-pyran-4-yl)methyl)amino)-[2,4′-bipyridin]-2′-yl)amino)cyclohexyl)methyl) methanesulfonamide] | < 0.5
13 | CC(C)S(=O)(=O)NC[C@H]1CC[C@H](Nc2cc(-c3cccc(NCC4(C#N)CCOCC4)n3)c(Cl)cn2)CC1 [Compound 495, N-((trans-4-((5′-chloro-6-(((4-cyanotetrahydro-2H-pyran-4-yl)methyl)amino)-[2,4′-bipyridin]-2′-yl)amino)cyclohexyl)methyl) propane-2-sulfonamide] | < 0.5
14 | N#CC1(CNc2cccc(-c3cc(N[C@H]4CC[C@H](CNS(=O)(=O)c5ccccc5)CC4)ncc3Cl)n2)CCOCC1 [Compound 496, N-((trans-4-((5′-chloro-6-(((4-cyanotetrahydro-2H-pyran-4-yl)methyl)amino)-[2,4′-bipyridin]-2′-yl)amino)cyclohexyl)methyl) benzenesulfonamide] | < 0.5
15 | COC(=O)NC[C@H]1CC[C@H](Nc2cc(-c3cccc(NCC4(C#N)CCOCC4)n3)c(Cl)cn2)CC1 [Compound 497, methyl ((trans-4-((5′-chloro-6-(((4-cyanotetrahydro-2H-pyran-4-yl)methyl)amino)-[2,4′-bipyridin]-2′-yl)amino)cyclohexyl)methyl) carbamate] | < 0.5
16 | COCC(=O)NC[C@H]1CC[C@H](Nc2cc(-c3cccc(NCC4(C#N)CCOCC4)n3)c(Cl)cn2)CC1 [Compound 498, N-((trans-4-((5′-chloro-6-(((4-cyanotetrahydro-2H-pyran-4-yl)methyl)amino)-[2,4′-bipyridin]-2′-yl)amino)cyclohexyl)methyl)-2-methoxyacetamide] | < 0.5
17 | CN(C)C(=O)NC[C@H]1CC[C@H](Nc2cc(-c3cccc(NCC4(C#N)CCOCC4)n3)c(Cl)cn2)CC1 [Compound 499, 3-((trans-4-((5′-chloro-6-(((4-cyanotetrahydro-2H-pyran-4-yl)methyl)amino)-[2,4′-bipyridin]-2′-yl)amino)cyclohexyl)methyl)-1,1-dimethylurea] | 0.6
18 | N#CC1(CNc2cccc(-c3cc(N[C@@H]4CCCc5ccccc54)ncc3Cl)n2)CCOCC1 [Compound 500, (R)-4-(((5′-chloro-2′-((1,2,3,4-tetrahydronaphthalen-1-yl)amino)-[2,4′-bipyridin]-6-yl)amino)methyl)tetrahydro-2H-pyran-4-carbonitrile] | 20
19 | N#CC1(CNc2cccc(-c3cc(N[C@H]4CCCc5ccccc54)ncc3Cl)n2)CCOCC1 [Compound 501, (S)-4-(((5′-chloro-2′-((1,2,3,4-tetrahydronaphthalen-1-yl)amino)-[2,4′-bipyridin]-6-yl)amino)methyl)tetrahydro-2H-pyran-4-carbonitrile] | 480
20 | C[C@H]1COCCN1[C@H]1CC[C@H](Nc2cc(-c3cccc(NCC4(C#N)CCOCC4)n3)c(Cl)cn2)CC1 [Compound 502, 4-((5′-chloro-2′-(trans-4-((S)-3-methylmorpholino)cyclohexyl-amino)-2,4′-bipyridin-6-ylamino)methyl)tetrahydro-2H-pyran-4-carbonitrile] | 2.9
